{
  "source": "patent US20250206754A1",
  "about": "“PAN-CHEMOKINE ANTAGONISTS FOR USE IN TREATING CANCER AND IMMUNE DISORDERS” (\"Micar Innovation\" LTD., priority 2022, published 2025)",
  "key": {"CCR7 [1]": {"target": "T1, CCR7 (Homo sapiens, UniProt P32248)", "T1 construct": "expressed in transfected cells", "T1 sequence (P32248 25-378)": "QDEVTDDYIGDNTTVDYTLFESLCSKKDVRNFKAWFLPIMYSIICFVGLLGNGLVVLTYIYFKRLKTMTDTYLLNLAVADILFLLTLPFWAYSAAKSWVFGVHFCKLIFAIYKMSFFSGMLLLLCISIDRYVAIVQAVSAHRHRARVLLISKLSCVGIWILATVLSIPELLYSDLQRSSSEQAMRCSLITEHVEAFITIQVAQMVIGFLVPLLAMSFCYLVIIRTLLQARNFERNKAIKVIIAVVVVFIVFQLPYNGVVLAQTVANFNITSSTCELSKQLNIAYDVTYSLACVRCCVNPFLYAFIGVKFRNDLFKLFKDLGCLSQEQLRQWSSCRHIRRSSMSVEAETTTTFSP", "test": "TANGO β-arrestin antagonist assay, CCR7", "assay_type": "cell-based", "description": "(§1) Selected compounds were initially sent for both antagonist and agonist TANGO β-arrestin assays. […] Replacement only on the amide group with CN led to strong activity decrease in β-arrestin assay: only 31% activity at about 30 μM and similar one at 100 μM (Table 1). Five more derivatives with replaced amide group were also tested in parallel by Ca^2+ mobilization assay and they all were not active up to the tested concertation of 100 μM.\nIn current CCR7-β-arrestin antagonistic assay a Hill coefficient of 15.1 was obtained, without any transformation of the data. Instead for CCR1, CCR2, CCR3 and CCR5 coefficients much closer to one were calculated, 2.3, 3.1, 2.6 and 1.9, respectively. Moreover, the increase of the activity for CCR3 and CCR5 were over 50-folds for concentrations where the activity raised. […] Further, the CCR7-β-arrestin antagonistic assay was repeated and retrieved almost identical results."}, "CCR7 [2]": {"target": "T1, CCR7", "test": "TANGO β-arrestin agonist assay, CCR7", "assay_type": "cell-based", "description": "as §1"}, "CCR7 [3]": {"target": "T1, CCR7", "test": "Ca^2+ mobilization assay, CCR7", "assay_type": "cell-based", "description": "as §1\nTo examine the colloid aggregation possibility a β-lactamase enzymatic activity counterscreen assay was performed, which is the commonly adopted tool for detection of such properties of the compounds."}, "CCR3": {"target": "T2, CCR3 (Homo sapiens, UniProt P51677)", "T2 sequence (P51677 1-355)": "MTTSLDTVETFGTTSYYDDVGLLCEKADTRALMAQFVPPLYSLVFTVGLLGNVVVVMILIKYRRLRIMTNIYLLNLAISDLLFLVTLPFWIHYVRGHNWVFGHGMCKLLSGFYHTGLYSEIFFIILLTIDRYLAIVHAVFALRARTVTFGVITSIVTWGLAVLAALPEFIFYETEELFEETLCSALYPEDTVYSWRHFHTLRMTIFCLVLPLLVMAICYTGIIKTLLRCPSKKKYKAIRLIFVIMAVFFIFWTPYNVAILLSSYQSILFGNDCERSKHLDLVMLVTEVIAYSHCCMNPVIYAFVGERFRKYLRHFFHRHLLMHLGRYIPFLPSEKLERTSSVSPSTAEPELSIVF", "test": "β-arrestin selectivity assay, CCR3", "assay_type": "cell-based"}, "CCR5": {"target": "CCR5 (Homo sapiens, UniProt P51681)", "sequence (P51681 whole entry)": "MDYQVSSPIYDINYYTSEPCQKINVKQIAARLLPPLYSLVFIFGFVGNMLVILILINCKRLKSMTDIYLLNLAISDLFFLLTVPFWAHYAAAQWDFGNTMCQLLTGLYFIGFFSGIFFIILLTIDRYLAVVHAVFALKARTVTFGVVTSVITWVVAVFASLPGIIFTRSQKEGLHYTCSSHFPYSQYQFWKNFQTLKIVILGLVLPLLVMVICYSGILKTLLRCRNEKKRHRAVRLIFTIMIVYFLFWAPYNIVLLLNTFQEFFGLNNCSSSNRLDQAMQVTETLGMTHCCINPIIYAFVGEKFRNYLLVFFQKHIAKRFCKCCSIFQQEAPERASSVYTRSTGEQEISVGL", "test": "cAMP assay, CCR5", "assay_type": "cell-based", "settings": "CCR5 (data not shown)", "description": "(§2) The Kb values are also retrieved. […] Finally, to make it more clear the second messenger output for Hit1 and confirm the nature of β-arrestin bias GTPγS and ERK assays were also performed. […] Considering that the ERK is directly related to β-arrestin path and binds directly to the arrestin it was concluded that this compound is β-arrestin biased (Table 1 and FIGS. 3A and 3B). Finally, several other potential hits were identified but the activities were in a range of 25-35% at 100 μM concentration and they were discarded in this disclosure."}, "CCR7 [4]": {"target": "T1, CCR7", "test": "GTPγS assay, CCR7", "assay_type": "biochemical", "description": "as §2\nCurrent diversity data provide also several additional experimental evidences which are against colloid aggregation activity dependence: • Almost identical steep dose-response curves have been observed for the natural CCL19 and CCL21 agonists. Thus, it seems that this is not unique to Hit 1 case. • Hill coefficient of 1.5 in the ERK experiments and no steep slope (FIG. 3A). Moreover, the ERK dose-response curve looks like a typical single antagonist ligand. • At the same conditions as in the ERK assay the compound was in particular not active in the GTPγS assay up to 100 μM (FIG. 3B). […]"}, "[5]": {"tested_on": "primary human keratinocytes", "test": "Cell viability in the keratinocyte inflammation models", "assay_type": "cell-based", "settings": "in the cytokine release models"}, "4T-1-luc cells": {"tested_on": "4T-1-luc cells", "assay_type": "in vivo", "settings": "Day 15"}, "MB231cell line": {"tested_on": "MB231cell line", "test": "Migration assay by MB231 cell line with CCL19/CCL21", "settings": "100 nM of CCL19/CCL21", "method": "For this purpose a model for the inhibition of CCL2 release from IL-4, IL-13, IL-22 and IFNγ-stimulated primary human keratinocytes (Eczematous inflammation) was used and also an assay for the inhibition of IL-8 release from IL-17A and TNFα (Psoriatic inflammation). […] Finally, migration assay by MB231cell line was performed."}},
  "note": "Read-outs that look alike come from different tables or passages of the source.",
  "data": [
    {"smiles": "NC(=O)c1ccccc1Oc1ncnc2sc(-c3ccccc3)cc12", "note": "[Hit 1, 2-({6-phenylthieno[2,3-d]pyrimidin-4-yl}oxy)benzamide]", "values": [
      {"measurement": "inhibition at 100 µM", "setting": "CCR7 [1]; 100 μM concentration, read-out: β-arrestin assay (100 μM), Percent of inhibition", "result": 110, "unit": "%"},
      {"measurement": "Hill coefficient", "setting": "CCR7 [1]; CCR7-β-arrestin antagonistic assay, without any transformation of the data", "result": 15.1},
      {"measurement": "IC50", "setting": "CCR7 [1]; TANGO β-arrestin antagonist assay, CCR7, read-out: IC50, antagonistic activity", "result": 9.1, "unit": "µM"},
      {"measurement": "Hill slope", "setting": "CCR7 [1]; same data transformed to log units, normalized, GraphPad 6", "result": 11.2},
      {"measurement": "IC50", "setting": "CCR7 [1]; same data transformed to log units, normalized, GraphPad 6, read-out: IC50", "result": 9.2, "unit": "µM"},
      {"measurement": "agonist activity", "setting": "CCR7 [2]", "result": "no any agonist activity"},
      {"measurement": "inhibition at 100 µM", "setting": "CCR7 [3]; 100 μM concentration, read-out: Ca^2+ assay (100 μM), Percent of inhibition", "result": 63, "unit": "%"},
      {"measurement": "Kb", "setting": "CCR7 [3]; CCR7", "result": 2.8, "unit": "µM"},
      {"measurement": "Hill slope", "setting": "CCR7 [3]; Ca^2+ mobilization assay, CCR7", "result": 2.6},
      {"measurement": "IC50", "setting": "CCR7 [3]; Ca^2+ mobilization assay, CCR7", "result": 92, "unit": "µM"},
      {"measurement": "activity change with 0.01% Triton X-100", "setting": "CCR7 [3]; Ca^2+ mobilization assay, CCR7 expressed cells, preliminary data", "result": "no activity change"},
      {"measurement": "IC50", "setting": "CCR7 [3]; similar Ca^2+ mobilization assay in an independent lab (data not shown)", "result": "25 to 30", "unit": "µM"},
      {"measurement": "Hill coefficient", "setting": "CCR3", "result": 2.6},
      {"measurement": "IC50", "setting": "CCR3", "result": 4.4, "unit": "µM"},
      {"measurement": "IC50", "setting": "CCR5", "result": 50, "unit": "µM"},
      {"measurement": "antagonist activity", "setting": "CCR7 [4]; GTPγS assay, highest concentration of 100 μM", "result": 16, "unit": "%"},
      {"measurement": "activity in GTPγS assay", "setting": "CCR7 [4]; up to 100 μM", "result": "not active"},
      {"measurement": "cell viability", "setting": "[5]", "result": "Some inhibition of the cell viability"},
      {"measurement": "Animal bioluminescence imaging intensity, Mean", "setting": "4T-1-luc cells; G2 5 mg/kg p.o. QD", "result": "1.69E+08 10^8 p/s"},
      {"measurement": "Animal bioluminescence imaging intensity, Mean", "setting": "4T-1-luc cells; G3 30 mg/kg p.o. QD", "result": "1.09E+08 10^8 p/s"},
      {"measurement": "reduction of CCL19/CCL21-induced migration", "setting": "MB231cell line", "result": 10, "unit": "folds"},
      {"measurement": "migratory cells", "setting": "MB231cell line; control 100%, CCL19/CCL21 200%", "result": 20, "unit": "%"}
    ]}
  ]
}
